{"source": "ChEMBL document CHEMBL2203234", "about": "“Optimisation of imidazole compounds as selective TAAR1 agonists: discovery of RO5073012” (Bioorg Med Chem Lett, 2012)", "key": {"[1]": {"molecular_target": "Substance-K receptor (Homo sapiens) (UniProt P21452)", "experiment": "Inhibition of human Nk2 receptor at 10 uM by CEREP assay"}, "[2]": {"experiment": "Inhibition of Adenylyl cyclase at 10 uM by CEREP assay"}, "[3]": {"molecular_target": "Nociceptin receptor (Homo sapiens) (UniProt P41146)", "sequence (P41146 whole entry)": "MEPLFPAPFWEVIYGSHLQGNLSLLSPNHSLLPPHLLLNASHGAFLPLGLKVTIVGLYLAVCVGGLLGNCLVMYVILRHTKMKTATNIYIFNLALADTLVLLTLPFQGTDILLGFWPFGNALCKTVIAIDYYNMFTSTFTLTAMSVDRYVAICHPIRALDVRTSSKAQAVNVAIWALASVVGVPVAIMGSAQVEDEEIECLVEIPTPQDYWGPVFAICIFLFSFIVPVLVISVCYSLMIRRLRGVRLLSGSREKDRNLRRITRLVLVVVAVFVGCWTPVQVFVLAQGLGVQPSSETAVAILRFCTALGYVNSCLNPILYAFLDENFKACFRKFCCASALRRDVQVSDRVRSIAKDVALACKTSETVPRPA", "experiment": "Inhibition of human ORL1 receptor at 10 uM by CEREP assay"}, "[4]": {"molecular_target": "Thromboxane A2 receptor (Homo sapiens) (UniProt P21731)", "sequence (P21731 whole entry)": "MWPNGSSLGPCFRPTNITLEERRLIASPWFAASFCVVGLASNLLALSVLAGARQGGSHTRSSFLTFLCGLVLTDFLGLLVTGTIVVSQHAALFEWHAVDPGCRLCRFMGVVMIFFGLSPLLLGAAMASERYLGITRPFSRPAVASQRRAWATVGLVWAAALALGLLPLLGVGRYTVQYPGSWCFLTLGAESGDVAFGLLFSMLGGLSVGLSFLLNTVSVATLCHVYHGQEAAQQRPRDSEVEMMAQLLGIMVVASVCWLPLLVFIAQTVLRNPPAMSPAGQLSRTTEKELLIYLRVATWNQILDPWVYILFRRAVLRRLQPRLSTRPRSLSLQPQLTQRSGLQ", "experiment": "Inhibition of human TXA2/PGH2 receptor at 10 uM by CEREP assay"}, "[5]": {"molecular_target": "Sodium-dependent dopamine transporter (Homo sapiens) (UniProt Q01959)", "sequence (Q01959 whole entry)": "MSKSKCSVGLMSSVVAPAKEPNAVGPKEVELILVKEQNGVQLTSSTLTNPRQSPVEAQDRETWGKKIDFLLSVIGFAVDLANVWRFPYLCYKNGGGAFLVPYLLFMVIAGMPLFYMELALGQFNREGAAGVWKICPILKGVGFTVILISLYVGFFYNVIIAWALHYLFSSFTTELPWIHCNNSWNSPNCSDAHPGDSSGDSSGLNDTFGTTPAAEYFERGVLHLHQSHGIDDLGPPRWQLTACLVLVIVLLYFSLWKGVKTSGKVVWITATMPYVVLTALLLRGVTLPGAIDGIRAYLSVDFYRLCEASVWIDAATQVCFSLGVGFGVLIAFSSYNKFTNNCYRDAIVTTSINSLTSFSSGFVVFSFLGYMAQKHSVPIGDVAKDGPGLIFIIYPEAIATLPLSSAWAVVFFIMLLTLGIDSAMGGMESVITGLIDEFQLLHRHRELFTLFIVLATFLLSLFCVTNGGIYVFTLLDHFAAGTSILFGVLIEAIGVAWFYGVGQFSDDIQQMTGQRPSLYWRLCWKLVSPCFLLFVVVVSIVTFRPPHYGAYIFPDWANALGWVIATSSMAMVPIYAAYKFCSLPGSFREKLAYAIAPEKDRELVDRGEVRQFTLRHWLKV", "experiment": "Inhibition of human DA transporter at 10 uM by CEREP assay"}, "[6]": {"molecular_target": "5-hydroxytryptamine receptor 6 (Homo sapiens) (UniProt P50406)", "experiment": "Inhibition of human 5-HT6 receptor at 10 uM by CEREP assay"}, "[7]": {"experiment": "Inhibition of Na+/K+ ATPase at 10 uM by CEREP assay"}, "[8]": {"molecular_target": "Histamine H3 receptor (Homo sapiens) (UniProt Q9Y5N1)", "experiment": "Inhibition of human H3 receptor at 10 uM by CEREP assay"}, "[9]": {"molecular_target": "Muscarinic acetylcholine receptor M4 (Homo sapiens) (UniProt P08173)", "sequence (P08173 whole entry)": "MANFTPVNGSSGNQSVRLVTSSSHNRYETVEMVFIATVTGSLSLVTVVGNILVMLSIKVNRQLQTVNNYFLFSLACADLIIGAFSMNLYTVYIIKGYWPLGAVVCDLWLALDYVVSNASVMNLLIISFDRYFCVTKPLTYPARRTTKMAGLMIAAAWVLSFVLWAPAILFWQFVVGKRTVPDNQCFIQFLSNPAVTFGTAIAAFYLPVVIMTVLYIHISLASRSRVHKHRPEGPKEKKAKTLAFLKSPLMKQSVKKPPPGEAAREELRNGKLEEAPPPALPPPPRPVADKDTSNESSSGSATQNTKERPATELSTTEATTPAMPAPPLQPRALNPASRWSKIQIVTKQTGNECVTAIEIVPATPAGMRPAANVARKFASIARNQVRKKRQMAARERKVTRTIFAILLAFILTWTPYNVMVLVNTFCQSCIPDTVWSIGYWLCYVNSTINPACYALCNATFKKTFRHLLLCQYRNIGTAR", "experiment": "Inhibition of human M4 receptor at 10 uM by CEREP assay"}, "[10]": {"molecular_target": "5-hydroxytryptamine receptor 1A (Homo sapiens) (UniProt P08908)", "experiment": "Inhibition of human 5-HT1A receptor at 10 uM by CEREP assay"}, "[11]": {"experiment": "Half life in mouse at 7.1 mg/kg, po", "assay_type": "ADME, organism-based", "design": "dose 7.1 mg/kg, route oral", "conditions": "in vivo"}, "[12]": {"experiment": "Inhibition of peripheral BZD receptor at 10 uM by CEREP assay"}, "Homo sapiens": {"species": "Homo sapiens", "experiment": "Inhibition of human I2 receptor at 10 uM by CEREP assay"}, "[13]": {"molecular_target": "Leukotriene B4 receptor 1 (Homo sapiens) (UniProt Q15722)", "experiment": "Inhibition of human LTB4 receptor at 10 uM by CEREP assay"}, "[14]": {"experiment": "Inhibition of PDE1 at 10 uM by CEREP assay"}, "[15]": {"molecular_target": "Histamine H1 receptor (Homo sapiens) (UniProt P35367)", "experiment": "Inhibition of human H1 receptor at 10 uM by CEREP assay"}, "[16]": {"experiment": "Inhibition of SKca channel at 10 uM by CEREP assay"}, "[17]": {"molecular_target": "Calcitonin gene-related peptide type 1 receptor (Homo sapiens) (UniProt Q16602)", "sequence (Q16602 whole entry)": "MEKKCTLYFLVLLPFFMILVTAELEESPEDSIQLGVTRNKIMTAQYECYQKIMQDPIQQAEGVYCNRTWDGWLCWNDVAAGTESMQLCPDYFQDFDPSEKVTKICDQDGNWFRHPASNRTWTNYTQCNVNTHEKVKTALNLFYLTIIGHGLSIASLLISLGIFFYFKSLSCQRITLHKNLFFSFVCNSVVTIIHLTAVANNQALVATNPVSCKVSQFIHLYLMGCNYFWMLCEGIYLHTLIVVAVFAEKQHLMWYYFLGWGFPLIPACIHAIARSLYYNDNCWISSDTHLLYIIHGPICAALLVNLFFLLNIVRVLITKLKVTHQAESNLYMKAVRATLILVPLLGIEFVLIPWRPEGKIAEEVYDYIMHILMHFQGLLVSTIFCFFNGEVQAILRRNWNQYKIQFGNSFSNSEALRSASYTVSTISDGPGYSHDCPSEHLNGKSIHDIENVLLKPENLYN", "experiment": "Inhibition of human CGRP receptor at 10 uM by CEREP assay"}, "[18]": {"molecular_target": "cGMP-dependent 3',5'-cyclic phosphodiesterase (Homo sapiens) (UniProt O00408)", "experiment": "Inhibition of human PDE2 at 10 uM by CEREP assay"}, "[19]": {"molecular_target": "B1 bradykinin receptor (Homo sapiens) (UniProt P46663)", "sequence (P46663 whole entry)": "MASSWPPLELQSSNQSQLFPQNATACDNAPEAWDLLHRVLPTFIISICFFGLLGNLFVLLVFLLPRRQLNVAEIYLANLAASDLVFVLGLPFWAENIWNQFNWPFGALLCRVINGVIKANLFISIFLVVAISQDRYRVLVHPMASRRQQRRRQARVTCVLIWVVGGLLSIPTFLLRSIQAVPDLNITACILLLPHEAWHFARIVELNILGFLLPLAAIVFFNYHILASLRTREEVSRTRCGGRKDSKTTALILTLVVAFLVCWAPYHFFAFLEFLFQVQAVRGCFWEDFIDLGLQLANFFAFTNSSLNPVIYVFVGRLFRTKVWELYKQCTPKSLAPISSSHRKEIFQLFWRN", "experiment": "Inhibition of human B1 receptor at 10 uM by CEREP assay"}, "[20]": {"molecular_target": "Vasopressin V1a receptor (Homo sapiens) (UniProt P37288)", "sequence (P37288 whole entry, looked up)": "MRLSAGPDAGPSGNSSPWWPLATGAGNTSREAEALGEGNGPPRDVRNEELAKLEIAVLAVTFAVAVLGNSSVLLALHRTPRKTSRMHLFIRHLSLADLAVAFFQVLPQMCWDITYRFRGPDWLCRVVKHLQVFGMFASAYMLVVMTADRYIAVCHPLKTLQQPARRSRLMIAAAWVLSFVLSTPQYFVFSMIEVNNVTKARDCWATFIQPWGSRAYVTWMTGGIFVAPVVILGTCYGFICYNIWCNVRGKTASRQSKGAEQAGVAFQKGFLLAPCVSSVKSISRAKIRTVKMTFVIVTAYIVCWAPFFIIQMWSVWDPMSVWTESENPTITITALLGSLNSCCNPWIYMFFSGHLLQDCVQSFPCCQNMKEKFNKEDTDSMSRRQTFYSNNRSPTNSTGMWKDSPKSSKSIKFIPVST", "experiment": "Inhibition of human V1a receptor at 10 uM by CEREP assay"}, "[21]": {"molecular_target": "Catechol O-methyltransferase (Homo sapiens) (UniProt P21964)", "sequence (P21964 whole entry)": "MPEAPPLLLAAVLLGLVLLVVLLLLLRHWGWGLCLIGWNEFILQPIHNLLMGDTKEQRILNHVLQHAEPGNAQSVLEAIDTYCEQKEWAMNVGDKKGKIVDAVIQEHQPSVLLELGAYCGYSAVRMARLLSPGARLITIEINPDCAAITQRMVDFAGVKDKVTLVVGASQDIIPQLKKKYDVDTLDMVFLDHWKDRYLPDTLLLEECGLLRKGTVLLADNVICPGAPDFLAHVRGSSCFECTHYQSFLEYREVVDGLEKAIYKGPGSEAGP", "experiment": "Inhibition of COMT at 10 uM by CEREP assay"}, "[22]": {"experiment": "Inhibition of L-type Ca2+ channel DHP site at 10 uM by CEREP assay"}, "[23]": {"experiment": "Oral bioavailability in rat at 10 mg/kg", "assay_type": "ADME, organism-based", "conditions": "in vivo"}, "[24]": {"molecular_target": "Galanin receptor type 2 (Homo sapiens) (UniProt O43603)", "experiment": "Inhibition of human GAL2 receptor at 10 uM by CEREP assay"}, "[25]": {"molecular_target": "B2 bradykinin receptor (Homo sapiens) (UniProt P30411)", "experiment": "Inhibition of human B2 receptor at 10 uM by CEREP assay"}, "[26]": {"molecular_target": "C-X-C chemokine receptor type 4 (Homo sapiens) (UniProt P61073)", "experiment": "Inhibition of human CXCR4 receptor at 10 uM by CEREP assay"}, "[27]": {"molecular_target": "5-hydroxytryptamine receptor 4 (Homo sapiens) (UniProt Q13639)", "experiment": "Inhibition of human 5-HT4 receptor at 10 uM by CEREP assay"}, "[28]": {"molecular_target": "Endothelin-1 receptor (Homo sapiens) (UniProt P25101)", "sequence (P25101 whole entry)": "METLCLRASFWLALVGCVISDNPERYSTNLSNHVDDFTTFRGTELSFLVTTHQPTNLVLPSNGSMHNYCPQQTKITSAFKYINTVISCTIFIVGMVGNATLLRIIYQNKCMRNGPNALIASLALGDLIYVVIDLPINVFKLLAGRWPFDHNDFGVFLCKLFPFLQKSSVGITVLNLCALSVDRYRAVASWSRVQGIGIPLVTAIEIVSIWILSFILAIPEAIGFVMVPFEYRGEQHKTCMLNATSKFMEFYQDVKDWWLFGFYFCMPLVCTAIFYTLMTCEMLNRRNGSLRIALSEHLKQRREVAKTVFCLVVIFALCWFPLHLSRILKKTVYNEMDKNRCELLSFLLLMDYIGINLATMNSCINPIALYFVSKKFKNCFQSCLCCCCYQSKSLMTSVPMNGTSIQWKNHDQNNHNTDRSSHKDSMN", "experiment": "Inhibition of human ETA receptor at 10 uM by CEREP assay"}, "[29]": {"molecular_target": "D(4) dopamine receptor (Homo sapiens) (UniProt P21917)", "experiment": "Inhibition of human D4.4 receptor at 10 uM by CEREP assay"}, "[30]": {"molecular_target": "Gastrin/cholecystokinin type B receptor (Homo sapiens) (UniProt P32239)", "experiment": "Inhibition of human CCKB receptor at 10 uM by CEREP assay"}, "[31]": {"molecular_target": "C-C chemokine receptor type 1 (Homo sapiens) (UniProt P32246)", "sequence (P32246 whole entry)": "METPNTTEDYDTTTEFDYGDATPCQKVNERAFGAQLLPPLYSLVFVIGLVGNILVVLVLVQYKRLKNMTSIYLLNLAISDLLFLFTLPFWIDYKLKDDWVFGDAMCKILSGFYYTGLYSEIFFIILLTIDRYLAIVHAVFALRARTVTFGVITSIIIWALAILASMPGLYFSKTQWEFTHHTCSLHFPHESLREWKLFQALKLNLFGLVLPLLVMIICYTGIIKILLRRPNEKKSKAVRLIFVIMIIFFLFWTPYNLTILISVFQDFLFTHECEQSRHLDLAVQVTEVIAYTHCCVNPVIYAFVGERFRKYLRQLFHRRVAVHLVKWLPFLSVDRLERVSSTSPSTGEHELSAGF", "experiment": "Inhibition of human CCR1 receptor at 10 uM by CEREP assay"}, "[32]": {"experiment": "Inhibition of GABA receptor at 10 uM by CEREP assay"}, "[33]": {"molecular_target": "T1, Trace amine-associated receptor 1 (Homo sapiens, UniProt Q96RJ0)", "T1 sequence (Q96RJ0 whole entry)": "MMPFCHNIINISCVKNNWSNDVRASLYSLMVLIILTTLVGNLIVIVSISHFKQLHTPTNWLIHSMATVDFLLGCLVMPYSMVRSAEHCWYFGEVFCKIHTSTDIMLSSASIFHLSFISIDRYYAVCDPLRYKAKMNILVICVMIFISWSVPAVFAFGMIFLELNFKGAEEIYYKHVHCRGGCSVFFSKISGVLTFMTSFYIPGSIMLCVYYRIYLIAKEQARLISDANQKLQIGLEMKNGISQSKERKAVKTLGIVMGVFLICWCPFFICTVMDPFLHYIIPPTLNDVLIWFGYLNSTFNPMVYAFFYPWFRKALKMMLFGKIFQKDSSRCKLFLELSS", "experiment": "Displacement of (S)-4-(2,4-difluorophenyl-3-tritio) -4,5-dihydro-2-oxazolamine from human TAAR1 receptor expressed in HEK293 cells after 90 mins by beta counting analysis", "assay_type": "cell-based"}, "[34]": {"experiment": "Inhibition of human I1 receptor by CEREP assay"}, "[35]": {"experiment": "Half life in rat at 10 mg/kg, po", "assay_type": "ADME, organism-based", "design": "dose 10 mg/kg, route oral", "conditions": "in vivo"}, "[36]": {"experiment": "Inhibition of NMDA receptor PCP site at 10 uM by CEREP assay"}, "[37]": {"molecular_target": "5-hydroxytryptamine receptor 2A (Homo sapiens) (UniProt P28223)", "sequence (P28223 whole entry)": "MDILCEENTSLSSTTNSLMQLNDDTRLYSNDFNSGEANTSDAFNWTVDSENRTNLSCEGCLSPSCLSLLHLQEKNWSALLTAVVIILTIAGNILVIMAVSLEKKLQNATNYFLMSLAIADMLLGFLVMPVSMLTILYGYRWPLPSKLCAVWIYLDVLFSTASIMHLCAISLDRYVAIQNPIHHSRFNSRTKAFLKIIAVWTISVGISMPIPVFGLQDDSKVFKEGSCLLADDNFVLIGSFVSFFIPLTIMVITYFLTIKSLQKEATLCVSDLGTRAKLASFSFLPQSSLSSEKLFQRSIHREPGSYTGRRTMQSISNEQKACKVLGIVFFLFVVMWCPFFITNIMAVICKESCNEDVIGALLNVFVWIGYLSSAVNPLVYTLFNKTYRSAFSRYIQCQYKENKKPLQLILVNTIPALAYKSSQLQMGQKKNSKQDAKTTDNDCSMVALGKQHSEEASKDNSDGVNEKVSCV", "experiment": "Inhibition of human 5-HT2A receptor at 10 uM by CEREP assay"}, "[38]": {"experiment": "Inhibition of Na+ channel site 2 at 10 uM by CEREP assay"}, "[39]": {"molecular_target": "Androgen receptor (Homo sapiens) (UniProt P10275)", "experiment": "Inhibition of human androgen receptor at 10 uM by CEREP assay"}, "[40]": {"molecular_target": "Mu-type opioid receptor (Homo sapiens) (UniProt P35372)", "experiment": "Inhibition of human MOP receptor at 10 uM by CEREP assay"}, "[41]": {"molecular_target": "Cannabinoid receptor 2 (Homo sapiens) (UniProt P34972)", "sequence (P34972 whole entry)": "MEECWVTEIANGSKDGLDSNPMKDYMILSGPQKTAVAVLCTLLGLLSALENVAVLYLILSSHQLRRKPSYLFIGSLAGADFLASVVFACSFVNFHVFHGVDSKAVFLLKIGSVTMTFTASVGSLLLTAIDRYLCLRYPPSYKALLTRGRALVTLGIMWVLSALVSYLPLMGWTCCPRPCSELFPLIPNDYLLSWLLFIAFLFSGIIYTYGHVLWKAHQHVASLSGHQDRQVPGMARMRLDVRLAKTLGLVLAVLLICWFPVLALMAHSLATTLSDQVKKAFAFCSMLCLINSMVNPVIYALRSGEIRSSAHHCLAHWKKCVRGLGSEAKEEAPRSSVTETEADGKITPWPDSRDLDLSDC", "experiment": "Inhibition of human CB2 receptor at 10 uM by CEREP assay"}}}
{"smiles": "CCc1cccc(CC)c1Cc1ncc[nH]1", "values": [{"measurement": "inhibition", "setting": "[1]", "result": 3, "unit": "%"}, {"measurement": "inhibition", "setting": "[2]", "result": 2, "unit": "%"}, {"measurement": "inhibition", "setting": "[3]", "result": -3, "unit": "%"}, {"measurement": "inhibition", "setting": "[4]", "result": 7, "unit": "%"}, {"measurement": "inhibition", "setting": "[5]", "result": 0, "unit": "%"}, {"measurement": "inhibition", "setting": "[6]", "result": 9, "unit": "%"}, {"measurement": "inhibition", "setting": "[7]", "result": -1, "unit": "%"}, {"measurement": "inhibition", "setting": "[8]", "result": 6, "unit": "%"}, {"measurement": "inhibition", "setting": "[9]", "result": 31, "unit": "%"}, {"measurement": "inhibition", "setting": "[10]", "result": 96, "unit": "%"}, {"measurement": "half-life", "setting": "[11]", "result": 0.95, "unit": "h"}, {"measurement": "inhibition", "setting": "[12]", "result": 1, "unit": "%"}, {"measurement": "inhibition", "setting": "Homo sapiens", "result": 59, "unit": "%"}, {"measurement": "inhibition", "setting": "[13]", "result": 5, "unit": "%"}, {"measurement": "inhibition", "setting": "[14]", "result": 7, "unit": "%"}, {"measurement": "inhibition", "setting": "[15]", "result": 1, "unit": "%"}, {"measurement": "inhibition", "setting": "[16]", "result": 0, "unit": "%"}, {"measurement": "inhibition", "setting": "[17]", "result": -5, "unit": "%"}, {"measurement": "inhibition", "setting": "[18]", "result": -5, "unit": "%"}, {"measurement": "inhibition", "setting": "[19]", "result": -6, "unit": "%"}, {"measurement": "inhibition", "setting": "[20]", "result": 1, "unit": "%"}, {"measurement": "inhibition", "setting": "[21]", "result": 3, "unit": "%"}, {"measurement": "inhibition", "setting": "[22]", "result": 1, "unit": "%"}, {"measurement": "bioavailability", "setting": "[23]", "result": 17, "unit": "%"}, {"measurement": "inhibition", "setting": "[24]", "result": 4, "unit": "%"}, {"measurement": "inhibition", "setting": "[25]", "result": 3, "unit": "%"}, {"measurement": "inhibition", "setting": "[26]", "result": 11, "unit": "%"}, {"measurement": "inhibition", "setting": "[27]", "result": 8, "unit": "%"}, {"measurement": "inhibition", "setting": "[28]", "result": -3, "unit": "%"}, {"measurement": "inhibition", "setting": "[29]", "result": -3, "unit": "%"}, {"measurement": "inhibition", "setting": "[30]", "result": 6, "unit": "%"}, {"measurement": "inhibition", "setting": "[31]", "result": -1, "unit": "%"}, {"measurement": "inhibition", "setting": "[32]", "result": -10, "unit": "%"}, {"measurement": "Ki", "setting": "[33]", "result": 24, "unit": "nM"}, {"measurement": "Ki", "setting": "[34]", "result": 660, "unit": "nM"}, {"measurement": "half-life", "setting": "[35]", "result": 4.9, "unit": "h"}, {"measurement": "inhibition", "setting": "[36]", "result": 45, "unit": "%"}, {"measurement": "inhibition", "setting": "[37]", "result": -5, "unit": "%"}, {"measurement": "inhibition", "setting": "[38]", "result": 22, "unit": "%"}, {"measurement": "inhibition", "setting": "[39]", "result": 2, "unit": "%"}, {"measurement": "inhibition", "setting": "[40]", "result": 8, "unit": "%"}, {"measurement": "inhibition", "setting": "[41]", "result": -4, "unit": "%"}]}
